Columns and labels:
hippocampal neurons = assay type: cell-based, mice; conditions: hippocampal neurons infected with rAAV
Text: E: Analysis of apoptosis of hippocampal cultures uninfected or infected with the indicated rAAVs. Values are expressed as percentage of the total number of cells analyzed.

[1] = test system: VEGFD, VEGF, VEGFC and VEGFR3; assay: qRT-PCR analysis of shRNA knock-down of VEGF family members; assay type: cell-based, mice; conditions: hippocampal neurons infected with rAAV
Experimental: Total RNA was isolated at DIV10 to DIV13 from hippocampal primary neuron cultures or isolated brain tissues with Rneasy Mini Kit (Qiagen, Hilden, Germany) including an optional Dnase I treatment at room temperature for 15 min according to manufacturer's instructions (Qiagen). 1.2 μg of extracted RNA was reverse transcribed into first strand cDNA using High Capacity cDNA Reverse Transcription kit (Applied Biosystems, Foster City, Calif.). Quantitative reverse transcriptase PCR (qRT-PCR) was done on an ABI7300 thermal cycler using Universal qRT-PCR master mix with TaqMan Gene Expression Assays for the indicated genes (Applied Biosystems). The following TaqMan Gene Expression Assays were used in this study: Gusb (Mm00446953_m1), cFos (Mm00487425_m1), VEGFD (Mm00438965_m1), VEGFC (Mm01202432_m1), VEGF (Mm01281449_m1), VEGFR3 (Mm01292618_m1), beta-actin (Mm00607939_s1), beta-2 microglobulin (Mm00437762_m1), CBP (Mm01342435_m1), p38 MAPK alpha (Mm00442497_m1), p38 MAPK beta (Mm00440955_m1). Expression of target genes was normalized against the expression of Gusb as endogenous control gene. Data were derived from at least 5 independent experiments. For expression of shRNAs, an rAAV vector containing the U6 promoter for shRNA expression and a CaMKII promoter driving mCherry expression was used. Three different sequences were obtained from Open Biosystems ([…] 2 and […] 3), cloned and tested for silencing efficiency. […] As control, a scramble version of this sequence ([…] ID NO: 2) and the vector carrying only the mCherry ([…]) were used. Shp38alpha [NT] ID NO: 3), shp38beta [NT] ID NO: 4), […] ID NO: 5), […] ID NO: 6) and […] ID NO: 7; sequence obtained from Open Biosystems www.openbiosystems.com) were also cloned into the same vector. CBP expression level was knocked down using a pool of four short interfering RNAs (siRNAs) targeting mouse CBP (Accell siRNA SMARTpool; Thermo Scientific Dharmacon). The SMARTpool is a group of four siRNAs that have been screened to reduce a variety of potential off-target effects including the inclusion of miRNA (microRNA)-like seed motifs. Silencing of GAPDH was measured using Accell mouse GAPDH as a positive control, and as a negative control, a non-targeting Accell mouse siRNA pool was used. In addition, a fluorescently labeled non-targeting Accell mouse siRNA was also used to evaluate penetration efficiency in hippocampal neurons via immunocytochemistry. Briefly, 500 nM siRNAs were supplemented in the serum-free culturing medium at DIV8, and mRNA levels were analyzed at DIV13.

VEGFD = assay: qRT-PCR analysis of VEGFD expression in hippocampal neurons; assay type: cell-based, mice; conditions: hippocampal neurons infected with rAAV
Experimental: Total RNA was isolated at DIV10 to DIV13 from hippocampal primary neuron cultures or isolated brain tissues with Rneasy Mini Kit (Qiagen, Hilden, Germany) including an optional Dnase I treatment at room temperature for 15 min according to manufacturer's instructions (Qiagen). 1.2 μg of extracted RNA was reverse transcribed into first strand cDNA using High Capacity cDNA Reverse Transcription kit (Applied Biosystems, Foster City, Calif.).
Quantitative reverse transcriptase PCR (qRT-PCR) was done on an ABI7300 thermal cycler using Universal qRT-PCR master mix with TaqMan Gene Expression Assays for the indicated genes (Applied Biosystems). The following TaqMan Gene Expression Assays were used in this study: Gusb (Mm00446953_m1), cFos (Mm00487425_m1), VEGFD (Mm00438965_m1), VEGFC (Mm01202432_m1), VEGF (Mm01281449_m1), VEGFR3 (Mm01292618_m1), beta-actin (Mm00607939_s1), beta-2 microglobulin (Mm00437762_m1), CBP (Mm01342435_m1), p38 MAPK alpha (Mm00442497_m1), p38 MAPK beta (Mm00440955_m1). Expression of target genes was normalized against the expression of Gusb as endogenous control gene. Data were derived from at least 5 independent experiments.

CA1 pyramidal neurons = assay: Golgi staining-based morphometric analysis of CA1 neurons after stereotaxic rAAV delivery; assay type: in vivo, C57BL/6 mice; conditions: CA1 basal dendrites, 2.5 weeks after viral gene delivery
Experimental: rAAVs were delivered by stereotaxic injection into the right dorsal hippocampus of 2 months old male C57BL/6 mice. For the Golgi staining-based morphometric analysis, viral particles were unilaterally injected over a period of 20 min at the following coordinates relative to Bregma: anteroposterior, −2.1 mm; mediolateral, −1.4 mm; dorsoventral, −1.4 to −1.8 mm from the skull surface. For behavior experiments mice were injected bilaterally.
For 3D Sholl Analysis, total dendritic length and spine morphology were calculated using Object-Image freeware software with a specific set of macros (written by Dr. E. Ruthazer, McGill University, Quebec). Briefly, a z-Stack acquisition was imported, calibrated in Object-Image and manually traced. Total dendritic length was then computed. For Sholl analysis, the shell interval was set at 5 μm. All analyses were performed blind. In all in vitro experiments, for each condition, a minimum of 12 neurons from three independent preparations was analyzed. For the Golgi staining quantifications of 20 neurons for each condition from 4 different injected animals per viral construct were traced and analyzed.
Golgi impregnation was performed using a Rapid Golgi Stain Kit (FD Neuro Technologies) according to the manufacturer's protocol. […]

shVEGFD: shRNA targeting mouse VEGFD mRNA (GGGCTTCAGGAGCGAACAT; SEQ ID NO: 1), expressed from rAAV vector or plasmid with U6 promoter
cell death (hippocampal neurons): no increase in cell death | mRNA levels of respective targets [1]: reduced mRNA levels of their respective targets | VEGFD mRNA levels (VEGFD): reduced VEGFD mRNA levels | total length of dendrites and their complexity in vivo (CA1 pyramidal neurons): reduced both the total length of dendrites and their complexity
